What is called IC50 is the concentration at which inhibition is half-maximal.

For this experiment, the target named is T1, Recombinant purified human JAK3 (Homo sapiens, UniProt P52333).
T1 construct: purchased Promega V9441
T1 sequence (P52333 1-1124): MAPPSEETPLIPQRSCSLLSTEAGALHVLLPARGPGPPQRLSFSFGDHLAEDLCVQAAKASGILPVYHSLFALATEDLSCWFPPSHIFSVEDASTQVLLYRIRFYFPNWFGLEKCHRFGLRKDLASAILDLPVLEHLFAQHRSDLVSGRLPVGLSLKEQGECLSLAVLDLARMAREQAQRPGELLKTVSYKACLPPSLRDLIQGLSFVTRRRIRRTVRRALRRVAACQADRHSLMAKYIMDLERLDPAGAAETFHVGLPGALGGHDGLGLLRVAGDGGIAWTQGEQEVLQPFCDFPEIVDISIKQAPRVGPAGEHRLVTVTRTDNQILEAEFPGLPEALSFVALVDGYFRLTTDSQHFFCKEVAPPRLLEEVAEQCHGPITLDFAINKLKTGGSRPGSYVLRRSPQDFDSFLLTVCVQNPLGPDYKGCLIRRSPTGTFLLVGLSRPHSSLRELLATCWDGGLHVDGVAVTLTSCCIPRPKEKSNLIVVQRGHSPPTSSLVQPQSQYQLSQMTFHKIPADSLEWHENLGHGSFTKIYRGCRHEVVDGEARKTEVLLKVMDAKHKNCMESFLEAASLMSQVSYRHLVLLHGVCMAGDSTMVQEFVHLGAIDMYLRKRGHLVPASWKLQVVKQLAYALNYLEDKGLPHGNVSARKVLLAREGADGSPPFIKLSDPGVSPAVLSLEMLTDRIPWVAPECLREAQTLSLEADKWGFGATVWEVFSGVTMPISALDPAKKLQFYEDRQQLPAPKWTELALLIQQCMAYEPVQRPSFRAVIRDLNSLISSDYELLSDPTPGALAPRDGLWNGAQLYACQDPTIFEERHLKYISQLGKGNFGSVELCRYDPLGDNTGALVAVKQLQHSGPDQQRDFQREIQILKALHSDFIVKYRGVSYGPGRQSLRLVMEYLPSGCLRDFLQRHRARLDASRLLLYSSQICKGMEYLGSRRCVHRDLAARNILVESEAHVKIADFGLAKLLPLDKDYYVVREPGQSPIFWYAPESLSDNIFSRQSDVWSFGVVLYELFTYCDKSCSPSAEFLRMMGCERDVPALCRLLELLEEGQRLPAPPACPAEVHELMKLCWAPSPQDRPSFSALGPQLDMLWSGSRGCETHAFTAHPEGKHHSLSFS
Nature of the experiment: JAK3 inhibitory activity test (ADP-Glo kinase assay). Format: biochemical. Conditions: ATP 5 uM, 1 hour incubation at 30° C. On the procedure: The inhibitory activities against JAK3 were measured for the compounds prepared in the above Examples through in vitro analysis on the ADP Glow (Glo) platform.
Specifically, the inhibitory activities against JAK3 were measured using a JAK3 kinase assay kit (Promega, V9441), which was purchased from Promega. Recombinant purified human JAK3 was diluted with 1× kinase reaction buffer (JAK3: 40 mM Tris-CI, pH 7.5, 20 mM MgCl2, 0.1 mg/mL BSA and 50 uM OTT and added to a 96 well plate (JAK3: final concentration of 4 ng per reaction). The compounds prepared in the previous Examples were treated so as to be finally a 1% DMSO aqueous solution, and a substrate cocktail containing ATP (JAK3: final concentration of 5 uM) and 0.2 ug/ul of Poly(Glu4, Tyri) peptide (JAK3 final concentration) in the total 25 uL reactants was added to a 96-well plate to initiate enzymatic reaction. After incubation (30° C.) for 1 hour, equivalent volume (25 uL per reaction) of ADP Glo was added and incubated (30° C.) for 40 minutes at room temperature. Then, a kinase detection reagent (50 uL per reaction) was added and incubated (30° C.) for 30 minutes at room temperature. The kinase activity was measured by chemiluminescence according to the instructions of ADP Glo kinase assay kit, and the inhibitory activity of the compounds according to the present invention was calculated. For the analysis of the results of each compound, Microsoft Excel was used, and IC50 values were calculated by SigmaPlot software.
In general terms: ADP-Glo first removes unused ATP, then detects ADP through luciferase.
Take `C=CC(=O)Nc1cccc(Oc2cccc3nc(Nc4ccc(-n5nc(C)cc5C)cc4)nn23)c1` [Example 10, N-(3-(2-(4-(3,5-dimethyl-1H-pyrazol-1-yl)phenylamino)-[1,2,4]triazolo[1,5-a]pyridin-5-yloxy)phenyl)acrylamide]: the IC50 is 3.6 nM.

With `C=CC(=O)Nc1cccc(Oc2cccc3nc(Nc4ccc(N5CCN(C)CC5)cc4)nn23)c1` [Example 1, N-(3-(2-(4-(4-methylpiperazin-1-yl)phenylamino)-[1,2,4]triazolo[1,5-a]pyridin-5-yloxy)phenyl)acrylamide], the IC50 was determined as 0.47 nM.

With `C=CC(=O)Nc1cccc(Oc2cccc3nc(Nc4cccc(-n5nnnc5C)c4)nn23)c1` [Example 7, N-(3-(2-(3-(5-methyl-1H-tetrazol-1-yl)phenylamino)-[1,2,4]triazolo[1,5-a]pyridin-5-yloxy)phenyl)acrylamide], the IC50 was found to be 1.2 nM.

In the case of `C=CC(=O)Nc1cccc(Oc2cccc3nc(Nc4cccc(-n5nc(C)cc5C)c4)nn23)c1` [Example 9, N-(3-(2-(3-(3,5-dimethyl-1H-pyrazol-1-yl)phenylamino)-[1,2,4]triazolo[1,5-a]pyridin-5-yloxy)phenyl)acrylamide], the IC50 came out at 10.4 nM.

As for `C=CC(=O)Nc1ccc(F)c(Oc2cccc3nc(Nc4cnn(C)c4)nn23)c1` [Example 30, N-(4-fluoro-3-(2-(1-methyl-1H-pyrazol-4-ylamino)-[1,2,4]triazolo[1,5-a]pyridin-5-yloxy)phenyl)acrylamide], the half-inhibitory concentration (IC50) came out at 13.1 nM.

For `C=CC(=O)Nc1cccc(Oc2cccc3nc(Nc4cnn(C(F)F)c4)nn23)c1` [Example 8, N-(3-(2-(1-(difluoromethyl)-1H-pyrazol-4-ylamino)-[1,2,4]triazolo[1,5-a]pyridin-5-yloxy)phenyl)acrylamide], the IC50 stood at 1.3 nM.

Turning to `C=CC(=O)Nc1cccc(Oc2cccc3nc(Nc4ccc(S(=O)(=O)N5CCCCC5)cc4)nn23)c1` [Example 18, N-(3-(2-(4-(piperidin-1-ylsulfonyl)phenylamino)-[1,2,4]triazolo[1,5-a]pyridin-5-yloxy)phenyl)acrylamide], the IC50 came to 3 nM.

For the compound `C=CC(=O)Nc1cccc(Oc2cccc3nc(Nc4cnn(Cc5cccc(OC)c5)c4)nn23)c1` [Example 14, N-(3-(2-(1-(3-methoxybenzyl)-1H-pyrazol-4-ylamino)-[1,2,4]triazolo[1,5-a]pyridin-5-yloxy)phenyl)acrylamide], the IC50 came out at 11.1 nM.

Turning to `C=CC(=O)Nc1cccc(Oc2cccc3nc(Nc4ccc(N(C)C)cc4)nn23)c1` [Example 6, N-(3-(2-(4-(dimethylamino)phenylamino)-[1,2,4]triazolo[1,5-a]pyridin-5-yloxy)phenyl)acrylamide], the IC50 worked out at 2.1 nM.

With `C=CC(=O)Nc1cccc(Oc2cccc3nc(Nc4cnc5ncn(C)c5c4)nn23)c1` [Example 26, N-(3-(2-(1-methyl-1H-imidazo[4,5-b]pyridin-6-ylamino)-[1,2,4]triazolo[1,5-a]pyridin-5-yloxy)phenyl)acrylamide], the IC50 is greater than 80 nM.

For the compound `C=CC(=O)Nc1cccc(Oc2cccc3nc(Nc4cnn(C)c4)nn23)c1` [Example 2, N-(3-(2-(1-methyl-1H-pyrazol-4-ylamino)-[1,2,4]triazolo[1,5-a]pyridin-5-yloxy)phenyl)acrylamide], the IC50 was 1.1 nM.

In the case of `C=CC(=O)Nc1cccc(Oc2cccc3nc(Nc4nc5ccc(Cl)cc5s4)nn23)c1` [Example 22, N-(3-(2-(6-chlorobenzo[d]thiazol-2-ylamino)-[1,2,4]triazolo[1,5-a]pyridin-5-yloxy)phenyl)acrylamide], the IC50 was greater than 400 nM.

On to `C=CC(=O)Nc1cccc(Oc2cccc3nc(Nc4ccc(Oc5ccccc5)cc4)nn23)c1` [Example 13, N-(3-(2-(4-phenoxyphenylamino)-[1,2,4]triazolo[1,5-a]pyridin-5-yloxy)phenyl)acrylamide], for which the IC50 was 9.8 nM.

With `C=CC(=O)Nc1cccc(Oc2cccc3nc(Nc4ccc(CN(C)C)cc4)nn23)c1` [Example 16, N-(3-(2-(4-((dimethylamino)methyl)phenylamino)-[1,2,4]triazolo[1,5-a]pyridin-5-yloxy)phenyl)acrylamide], the IC50 worked out at 0.7 nM.

With `CC#CC(=O)Nc1cccc(Oc2cccc3nc(Nc4ccc(N5CCN(C)CC5)cc4)nn23)c1` [Example 20, N-(3-(2-(4-(4-methylpiperazin-1-yl)phenylamino)-[1,2,4]triazolo[1,5-a]pyridin-5-yloxy)phenyl)but-2-ynamide], the IC50 is 0.6 nM.

For `C=CC(=O)Nc1cccc(Oc2cccc3nc(Nc4cccc5ccccc45)nn23)c1` [Example 23, N-(3-(2-(naphthalen-1-ylamino)-[1,2,4]triazolo[1,5-a]pyridin-5-yloxy)phenyl)acrylamide], the IC50 is greater than 400 nM.

In the case of `C=CC(=O)Nc1cccc(Oc2cccc3nc(Nc4ccc(C(=O)N5CCOCC5)cc4)nn23)c1` [Example 17, N-(3-(2-(4-(morpholine-4-carbonyl)phenylamino)-[1,2,4]triazolo[1,5-a]pyridin-5-yloxy)phenyl)acrylamide], the IC50 was determined as 0.7 nM.

For `C=CC(=O)Nc1cccc(Oc2cccc3nc(Nc4cnc5onc(C)c5c4)nn23)c1` [Example 25, N-(3-(2-(3-methylisoxazolo[5,4-b]pyridin-5-ylamino)-[1,2,4]triazolo[1,5-a]pyridin-5-yloxy)phenyl)acrylamide], the IC50 came to 105 nM.

Regarding `C=CC(=O)Nc1cccc(Oc2cccc3nc(Nc4cnc5ccccc5c4)nn23)c1` [Example 24, N-(3-(2-(quinolin-3-ylamino)-[1,2,4]triazolo[1,5-a]pyridin-5-yloxy)phenyl)acrylamide], the IC50 stood at 15.5 nM.

As for `C=CC(=O)Nc1cccc(Oc2cccc3nc(Nc4ccc5nc(Cl)sc5c4)nn23)c1` [Example 11, N-(3-(2-(2-chlorobenzo[d]thiazol-6-ylamino)-[1,2,4]triazolo[1,5-a]pyridin-5-yloxy)phenyl)acrylamide], the IC50 was 10.3 nM.

`C=CC(=O)Nc1cccc(Oc2cccc3nc(Nc4ccc(OCCN(CC)CC)cc4)nn23)c1` [Example 15, N-(3-(2-(4-(2-(diethylamino)ethoxy)phenylamino)-[1,2,4]triazolo[1,5-a]pyridin-5-yloxy)phenyl)acrylamide]: the half-maximal inhibitory concentration (IC50) stood at 6.2 nM.

As for `C=CC(=O)Nc1cccc(Oc2cccc3nc(Nc4cnn(CCN5CCOCC5)c4)nn23)c1` [Example 19, N-(3-(2-(1-(2-morpholinoethyl)-1H-pyrazol-4-ylamino)-[1,2,4]triazolo[1,5-a]pyridin-5-yloxy)phenyl)acrylamide], the IC50 is 5.1 nM.

Turning to `C=CC(=O)Nc1cccc(Oc2cccc3nc(Nc4ccc5ncsc5c4)nn23)c1` [Example 3, N-(3-(2-(benzo[d]thiazol-6-ylamino)-[1,2,4]triazolo[1,5-a]pyridin-5-yloxy)phenyl)acrylamide], the IC50 turned out to be 2.4 nM.

As for `C=CC(=O)Nc1ccc(F)c(Oc2cccc3nc(Nc4ccc(N5CCOCC5)cc4)nn23)c1` [Example 27, N-(4-fluoro-3-(2-(4-morpholinophenylamino)-[1,2,4]triazolo[1,5-a]pyridin-5-yloxy)phenyl)acrylamide], the IC50 amounted to 1.3 nM.

For the compound `C=CC(=O)Nc1ccc(F)c(Oc2cccc3nc(Nc4ccc5ncsc5c4)nn23)c1` [Example 28, N-(3-(2-(benzo[d]thiazol-6-ylamino)-[1,2,4]triazolo[1,5-a]pyridin-5-yloxy)-4-fluorophenyl)acrylamide], the IC50 was determined as 1.2 nM.

Source of the values: patent publication US20220389010A1, “Novel Triazolopyridine Derivatives and Pharmaceutical Composition Comprising Same” (Daewoong Pharmaceutical Co., Ltd., priority 2019, published 2022).
